# In patent US10077271B2, “Methods and compositions for inhibiting the interaction of menin with MLL proteins” (Kura Oncology, Inc., priority 2015, dated 2018):
# pIC50: −log10 of the molar value.
# Molecular target: T1, Menin MLL 4-43 (Homo sapiens, UniProt O00255)
# T1 construct: 6His
# T1 sequence (O00255 1-610): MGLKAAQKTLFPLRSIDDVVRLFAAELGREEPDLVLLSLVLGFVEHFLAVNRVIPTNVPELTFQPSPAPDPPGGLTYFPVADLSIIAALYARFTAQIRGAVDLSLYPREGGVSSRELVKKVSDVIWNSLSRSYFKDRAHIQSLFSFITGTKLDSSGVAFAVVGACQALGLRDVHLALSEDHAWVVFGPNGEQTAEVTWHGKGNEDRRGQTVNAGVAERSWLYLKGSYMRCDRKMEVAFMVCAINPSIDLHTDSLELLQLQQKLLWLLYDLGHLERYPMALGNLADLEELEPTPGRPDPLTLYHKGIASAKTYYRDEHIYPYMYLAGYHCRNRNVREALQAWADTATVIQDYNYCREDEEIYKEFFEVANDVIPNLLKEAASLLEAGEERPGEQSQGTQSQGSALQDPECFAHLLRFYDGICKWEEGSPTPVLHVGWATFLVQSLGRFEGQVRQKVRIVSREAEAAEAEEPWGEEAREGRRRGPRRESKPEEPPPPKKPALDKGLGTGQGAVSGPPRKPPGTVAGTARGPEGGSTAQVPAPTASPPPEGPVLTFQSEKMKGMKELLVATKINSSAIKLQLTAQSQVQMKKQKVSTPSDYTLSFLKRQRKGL
# Test: Inhibition of the menin-MLL interaction (Menin MLL 4-43 IC50)
# Type: binding
# Conditions: Formula II inhibitors of menin (Table 4G)
# Source text: This example illustrates an assay effective in monitoring the binding of MLL to menin. […] A fluorescein-labeled peptide containing the high affinity menin binding motif found in MLL is produced according to Yokoyama et al. (Cell, 2005, 123(2): 207-218), herein incorporated by reference in its entirety. Binding of the labeled peptide (1.7 kDa) to the much larger menin (˜67 kDa) is accompanied by a significant change in the rotational correlation time of the fluorophore, resulting in a substantial increase in the fluorescence polarization and fluorescence anisotropy (excitation at 500 nm, emission at 525 nm).
# A homogeneous time-resolve fluorescence (HTRF) assay is utilized as a secondary assay to confirm the results of the FP assay. In some embodiments, the HTRF assay is the primary assay and the FP assay is used as a secondary assay to confirm results. HTRF is based on the non-radiative energy transfer of the long-lived emission from the Europium cryptate (Eu^3+-cryptate) donor to the allophycocyanin (XL665) acceptor, combined with time-resolved detection. An Eu^3+-cryptate donor is conjugated with mouse anti-6His monoclonal antibody (which binds His-tagged menin) and XL665-acceptor is conjugate to streptavidin (which binds biotinylated MLL peptide). When these two fluorophores are brought together by the interaction of menin with the MLL peptide, energy transfer to the acceptor results in an increase in fluorescence emission at 665 nm and increased HTRF ratio (emission intensity at 665 nm/emission intensity at 620 nm). Inhibition of the menin-MLL interaction separates the donor from the acceptor, resulting in a decrease in emission at 665 nm and decreased HTRF ratio.
row,pIC50,SMILES
1,6.00 to 7.00,Cc1c(CN2CCC(Nc3nc(N)nc4sc(CC(F)(F)F)cc34)CC2)ccc2c1cc(C#N)n2Cc1cc[nH]n1 [II-16]
2,< 5.00,C#Cc1nc(NC2CCN(Cc3ccc4c(cc(C#N)n4Cc4cn[nH]c4)c3C)CC2)c2cc(CC(F)(F)F)sc2n1 [II-17]
3,6.00 to 7.00,C=CC(=O)Nc1ccc(CCC2C(C#N)=Cc3c2ccc(CN2CCC(Nc4nc(N)nc5sc(CC(F)(F)F)cc45)CC2)c3C)cn1 (stereo not drawn) [II-19]

# The next lines start with the compound.
row,SMILES,pIC50
1,Cc1c(CN2CCC(Nc3nc(N)nc4sc(CC(F)(F)F)cc34)CC2)ccc2[nH]c(C#N)cc12 [II-3],≥ 7.00
2,Cc1c(CN2CCC(Nc3nc(N)nc4sc(CC(F)(F)F)cc34)CC2)ccc2c1cc(C#N)n2Cc1cn[nH]c1 [II-4],≥ 7.00
3,Cc1c(CN2CCC(Nc3nc(Cl)nc4sc(CC(F)(F)F)cc34)CC2)ccc2[nH]c(C#N)cc12 [II-7],< 5.00
4,Cc1nc(NC2CCN(Cc3ccc4c(cc(C#N)n4Cc4cn[nH]c4)c3C)CC2)c2cc(CC(F)(F)F)sc2n1 [II-10],≥ 7.00
5,Cc1c(CN2CCC(Nc3nc(C(F)(F)F)nc4sc(CC(F)(F)F)cc34)CC2)ccc2[nH]c(C#N)cc12 [II-11],6.00 to 7.00
6,Cc1c(CN2CCC(Nc3nc(C#N)nc4sc(CC(F)(F)F)cc34)CC2)ccc2c1cc(C#N)n2Cc1cn[nH]c1 [II-14],5.00 to 6.00
7,C=Cc1nc(NC2CCN(Cc3ccc4[nH]c(C#N)cc4c3C)CC2)c2cc(CC(F)(F)F)sc2n1 [II-15],6.00 to 7.00
8,Cc1c(CN2CCC(Nc3nc(C(F)F)nc4sc(CC(F)(F)F)cc34)CC2)ccc2c1cc(C#N)n2Cc1cn[nH]c1 [II-18],< 5.00

# Same assay, conditions: Formula III inhibitors of menin (Table 4h)
row,pIC50,SMILES
1,< 5.00,Cc1c(CN2CCC(Nc3ncnc4sc(CC(F)(F)F)cc34)C(F)(F)C2)ccc2[nH]c(C#N)cc12 (stereo not drawn) [III-3]

# Same assay, conditions: Formula IV inhibitors of menin (Table 4i)
row,pIC50,SMILES
1,< 5.00,Cc1c(CN2CCC(Nc3ncnc4sc(CC(F)(F)F)cc34)CC2)cnc2[nH]c(C#N)cc12 [IV-2]
2,6.00 to 7.00,FC(F)(F)Cc1cc2c(NC3CCN(Cc4ccc5[nH]ncc5c4)CC3)ncnc2s1 [IV-8]
3,5.00 to 6.00,Cc1c(CN2CCC(Nc3ncnc4sc(CC(F)(F)F)cc34)CC2)ccc2[nH]ncc12 [IV-9]

# Same assay, conditions: Formula V inhibitors of menin (Table 4J)
row,pIC50,SMILES
1,< 5.00,Cc1c(CN2CCN(C(=O)c3ncnc4sc(CC(F)(F)F)cc34)CC2)ccc2[nH]c(C#N)cc12 [Compound V-3]
2,< 5.00,Cc1c(CN2CC(Nc3ncnc4sc(CC(F)(F)F)cc34)C2)ccc2[nH]c(C#N)cc12 [Compound V-13]
3,< 5.00,Cc1c(CN2CCC(Nc3ncnc4sc(CC(F)(F)F)cc34)C2)ccc2[nH]c(C#N)cc12 (stereo not drawn) [Compound V-15]
